The record followed here is patent US20120225909A1, “INDAZOLE ANALOG” (priority 2009, published 2012).

Series [1] deals with T1, human β3-adrenergic receptor (Homo sapiens, UniProt P13945).
T1 construct: A full-length human β3 gene is obtained from a human genomic library (made by Clontech) using this as the probe; expressed in transfected cells; host or cells: CHO (Chinese hamster ovary) cells, pcDNA3
Kind of series: Test Case 1-B: human β3-adrenergic receptor agonist activity (cAMP-Screen, 96-well). It counts as cell-based. The method in brief:
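CHO cells stably transfected with full-length human β3 gene, serum-starved 15 min, then exposed to serially diluted compound in Ham's F-12 with 100 mmol/L HEPES and 1 mmol/L IBMX (diluent concentrations) for 30 min. Cells lysed 30 min at 37 °C; cAMP quantified by cAMP-Screen immunoassay.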

Series [2] has as its target T2, human β1-adrenergic receptor (Homo sapiens, UniProt P08588).
T2 construct: expressed in transfected cells; host or cells: CHO (Chinese hamster ovary) cells, pcDNA3
Kind of series: Test Case 2-B: human β1-adrenergic receptor agonist activity. Particulars: read-out: β1 receptor I.A. Format: cell-based. On the procedure:
Measurement of Human β1-Adrenergic Receptor Agonist Activity
The human β1-adrenergic receptor agonist activity is measured by the same method as in Test Case 1-B using CHO (Chinese hamster ovary) cells transfected by a human β1 gene inserted in pcDNA3 (Invitrogen).

In series [3] the test system is common marmoset isolated bladder smooth muscle. Kind of series: Test Case 7: common marmoset isolated bladder smooth muscle relaxation test. Particulars: KCl 40 mmol/L contracted marmoset bladder, papaverine 10^−4 mol/L relaxation = 100%. On the procedure: Common Marmoset Isolated Bladder Smooth Muscle Relaxation Test
After sacrificing common marmosets (Japan CLEA) by exsanguination, they are laparotomized and the urinary bladder is removed. […] The specimens are loaded with one gram of resting tension and stabilized for 30 or more minutes. After the resting tension of the specimen has stabilized, a final concentration of 40 mmol/L of KCl is added repeatedly, and it is confirmed that the contraction in response to KCl has basically become constant. […] Taking that relaxation response as 100%, the relaxation rate (%) at test compound concentrations of […] is calculated.

Series [4] relates to pentobarbital-anesthetized rats. Briefly: Test Case 9: effects on the blood pressure and heart rate in pentobarbital-anesthetized rats. It counts as in vivo, rat. Particulars: anesthetized male SD rats; 3 mg/kg intravenous over 30 seconds; maximum change, mean±standard deviation.
Series [5] addresses T3, human α1A-adrenergic receptor (Homo sapiens, UniProt P35348).
T3 sequence (P35348 1-466): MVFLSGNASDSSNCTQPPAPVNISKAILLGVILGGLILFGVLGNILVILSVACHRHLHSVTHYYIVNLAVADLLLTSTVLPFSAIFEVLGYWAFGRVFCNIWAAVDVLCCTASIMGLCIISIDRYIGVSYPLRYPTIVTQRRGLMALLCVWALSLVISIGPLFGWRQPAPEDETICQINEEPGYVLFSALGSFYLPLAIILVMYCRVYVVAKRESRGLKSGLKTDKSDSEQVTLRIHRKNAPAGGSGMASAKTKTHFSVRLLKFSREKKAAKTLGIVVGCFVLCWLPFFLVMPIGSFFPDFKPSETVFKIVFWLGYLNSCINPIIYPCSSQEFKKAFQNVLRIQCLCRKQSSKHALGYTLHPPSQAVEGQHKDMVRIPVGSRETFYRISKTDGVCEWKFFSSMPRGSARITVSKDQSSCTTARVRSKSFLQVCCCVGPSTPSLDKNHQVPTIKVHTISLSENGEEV
Kind of series: Test Case 4-A: human α1A-adrenergic receptor agonist activity (HEK293, Ca flux, Fura-2). Format: cell-based. Set-up: expressed in transfected cells; host or cells: HEK293 cells, pcDNA3.1. The method, boiled down:
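Fura-2AM-loaded HEK293 cells transfected with human α1A were preincubated for 180 s. Compound (sample plate 10^−5 to 10^−12 M) was added after ~30 s of 340/380 nm excitation ratio reading (500 nm emission, 2-s intervals), followed by 270 s more reading. Ca flux is the peak height: maximum ratio after addition minus the pre-addition ratio.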

Where [6] appears, read: 0.5 h; read-out: β3 receptor I.A.
The mark [7] stands for this setting: HEK293; read-out: α1A receptor I.A.

Broadly, the EC50 is the concentration at which the effect is half-maximal. Read a high EC50 as weaker potency.

Read-outs that look alike come from different tables or passages of the source.

T1 sequence (P13945 whole entry): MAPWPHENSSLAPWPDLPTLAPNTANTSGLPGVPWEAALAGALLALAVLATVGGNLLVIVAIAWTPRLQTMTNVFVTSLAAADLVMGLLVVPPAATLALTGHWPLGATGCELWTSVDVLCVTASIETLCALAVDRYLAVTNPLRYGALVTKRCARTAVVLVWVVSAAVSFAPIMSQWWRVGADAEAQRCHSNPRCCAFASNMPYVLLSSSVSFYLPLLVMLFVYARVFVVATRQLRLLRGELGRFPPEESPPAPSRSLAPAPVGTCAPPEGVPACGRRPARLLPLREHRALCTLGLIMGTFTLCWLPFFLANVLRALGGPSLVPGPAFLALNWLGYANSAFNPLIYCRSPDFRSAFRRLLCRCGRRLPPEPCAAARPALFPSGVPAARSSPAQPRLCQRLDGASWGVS
T2 sequence (P08588 whole entry): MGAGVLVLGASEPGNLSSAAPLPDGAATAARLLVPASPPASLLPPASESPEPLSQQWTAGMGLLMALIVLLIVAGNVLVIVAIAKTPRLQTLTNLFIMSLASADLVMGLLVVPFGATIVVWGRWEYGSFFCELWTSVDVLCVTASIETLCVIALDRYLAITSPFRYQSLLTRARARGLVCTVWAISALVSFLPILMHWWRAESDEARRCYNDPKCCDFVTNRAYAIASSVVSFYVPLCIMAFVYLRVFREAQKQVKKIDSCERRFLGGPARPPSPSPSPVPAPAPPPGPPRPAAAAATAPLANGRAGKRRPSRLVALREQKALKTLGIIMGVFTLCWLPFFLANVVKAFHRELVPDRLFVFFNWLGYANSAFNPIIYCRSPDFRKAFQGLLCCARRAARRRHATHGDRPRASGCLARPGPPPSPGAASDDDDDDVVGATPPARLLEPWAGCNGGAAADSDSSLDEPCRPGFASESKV

For the compound `O=S(=O)(Nc1cccc([C@@H](O)CNCCOc2ccc3c(OC(F)F)n[nH]c3c2)c1)C1CC1` [ex4, (R)—N-(3-(2-(2-(3-(difluoromethoxy)-indazol-6-yloxy)ethylamino)-1-hydroxyethyl)phenyl)cyclopropanesulfonamide], the Emax came to 77% in series [1] (setting [6]), 2% in series [2] and 0% in series [5] (setting [7]). In series [1] (Test Case 1-B; CHO cells, cAMP), this compound had an EC50 of 38 nM. Besides, in series [3], the “relaxant activity (%) 10^−4M” value was found to be 53.7%. Moreover, in series [3], the “relaxant activity (%) 10^−5M” value is recorded as 30.1%. Besides, in series [4], the “increase in MBP (%)” value came to 2.4 ± 2.2%.

In the case of `Cc1n[nH]c2cc(OCCNC[C@H](O)c3cccc(NS(=O)(=O)C4CCC4)c3)ccc12` [ex3, (R)—N-(3-(1-hydroxy-2-(2-(3-methylindazol-6-yloxy)ethylamino)ethyl)phenyl)cyclobutanesulfonamide], the Emax in series [1] (0.5 h, read-out: β3 receptor I.A.) amounted to 105%; in series [2], 4%; in series [5] (HEK293, read-out: α1A receptor I.A.), 0%. In series [1] (Test Case 1-B; CHO cells, cAMP), this compound came in with an EC50 of 17 nM. Moreover, the “relaxant activity (%) 10^−4M” value in series [3] worked out at 63.2%. In series [3], the “relaxant activity (%) 10^−5M” value is 36.6%. For the same compound, in series [4], the “increase in MBP (%)” value stood at 2.0 ± 1.6%.

For `Cc1n[nH]c2cc(OCCNC[C@H](O)c3cccc(NS(=O)(=O)c4ccccc4F)c3)ccc12` [ex235, (R)-2-fluoro-N-(3-(1-hydroxy-2-(2-(3-methylindazol-6-yloxy)ethylamino)ethyl)phenyl)benzenesulfonamide], the Emax in series [1] (setting [6]) was found to be 113%; in series [2], 16%; in series [5] (setting [7]), 0%. In addition, in series [1] (Test Case 1-B; CHO cells, cAMP), the EC50 is 28 nM. The “relaxant activity (%) 10^−4M” value in series [3] was 55.3%. Besides, the “relaxant activity (%) 10^−5M” value in series [3] was 24.3%. Further, in series [4], the “increase in MBP (%)” value was determined as 3.4 ± 1.0%.
